Experimental data published in patent US20100004257A1 (University of South Floria, priority 2007, published 2010).
Where two headings read alike, the source gives them in different places.

Legend:
[1] = test system: imatinib-resistant BCR-ABL mutants; conditions: number of mutants / mutants tested; cited from earlier work
[2] = test system: pAkt, cleaved PARP in PC9 cells; assay: Western analysis of pAkt, pSTAT3 and cleaved PARP; type: cell-based, Human; conditions: 24 hours
[3] = test system: pTyr416 Src (pSrc) family in H1650 cells; assay: Western analysis of Src phosphorylation status; type: cell-based, Human; conditions: H1650 cells; 50 nmol/L; monohydrate
[4] = test system: H322 cells; assay: MTT assay after 120 hours, IC50; type: cell-based, Human; conditions: for IC50: Homo sapiens, NCI-H322, 120 h
From the text: (§1) Cell lines and cell culture. Human lung cancer cell lines were maintained in RPMI 1640 plus 5% bovine calf serum (BCS). H3255 cells were provided by Dr. Pasi Janne (Dana-Farber, Boston, Mass.) and grown in ACL-4 medium (12). HCC827 cells were provided by Dr. Jon Kurie (M. D. Anderson, Houston, Tex.). PC9 cells were provided by Dr. Matthew Lazzara (Massachusetts Institute of Technology, Boston, Mass.). […]. Gefitinib was provided by AstraZeneca (Wilmington, Del.) and dasatinib by Bristol-Myers Squibb Oncology (Princeton, N.J.). For cell transfection experiments, 2×10^6 HEK293 cells in a 6-cm dish maintained in DMEM/10% BCS were transfected with 1 Ag plasmid DNA for 3 hours using LipofectAMINE 2000 (Invitrogen, Carlsbad, Calif.) and then allowed to go 24 hours before being treated with inhibitors.
(§2) Cytotoxicity and apoptosis assays. Cytotoxicity assays [3-(4,5-dimethylthiazol-2-yl)-2,5-diphenyltetrazolium bromide] were done according to the manufacturer's recommendations (Roche, Indianapolis, Ind.). […] Data presented represent three separate experiments with eight data points per concentration per experiment. Apoptosis [PharMingen (San Diego, Calif.) Apo-BrdU kit] and cell cycle changes (propidium iodide staining and flow cytometry) were assayed as before (13). Data are expressed as mean±SD.

[5] = test system: H157 cells; assay: MTT assay after 120 hours, IC50; type: cell-based, Human; conditions: for IC50: Homo sapiens, NCI-H157, 120 h
From the text: as §1, §2

[6] = test system: H1299 cells; assay: MTT assay after 120 hours, IC50; type: cell-based, Human; conditions: for IC50: Homo sapiens, NCI-H1299, 120 h
From the text: as §1, §2

[7] = test system: H1648 cells; assay: MTT assay after 120 hours, IC50; type: cell-based, Human; conditions: for IC50: Homo sapiens, NCI-H1648, 120 h
From the text: as §1, §2

[8] = test system: H292 cells; assay: MTT assay after 120 hours, IC50; type: cell-based, Human; conditions: for IC50: Homo sapiens, NCI-H292, 120 h
From the text: as §1, §2

[9] = test system: H358 cells; assay: MTT assay after 120 hours, IC50; type: cell-based, Human; conditions: for IC50: Homo sapiens, NCI-H358, 120 h
From the text: as §1, §2

[10] = dosing for CML; ODAC briefing document; cited from earlier work
[11] = test system: pAkt, pSTAT3, cleaved PARP in H3255 cells; assay: Western analysis of pAkt, pSTAT3 and cleaved PARP; type: cell-based, Human; conditions: increasing concentrations, 24 hours
[12] = test system: pTyr416 Src (pSrc) family in PC9 cells; assay: Western analysis of Src phosphorylation status; type: cell-based, Human; conditions: 50 nmol/L, 24 hours
[13] = test system: A549 cells; assay: Cell cycle profile and cyclin D/p27 Western analysis; type: cell-based, Human; conditions: 24 hours, gefitinib 1 μmol/L, dasatinib 500 nmol/L
[14] = test system: pFAK, pSTAT3, pAkt, pERK in A549 cells; assay: Western analysis of pFAK, pSTAT3, pAkt, pERK; type: cell-based, Human; conditions: 500 nmol/L, 3 hours
[15] = test system: H1650 cells; assay: Cell viability, dasatinib compared with gefitinib, 72 hours; type: cell-based, Human; conditions: H1650 grown in 5% BCS, FIG. 6
Method: FIG. 6. presents a series of four graphs, with each graph representative of a different cell line as indicated at the top of the graph.
Cytotoxicity and apoptosis assays. Cytotoxicity assays [3-(4,5-dimethylthiazol-2-yl)-2,5-diphenyltetrazolium bromide] were done according to the manufacturer's recommendations (Roche, Indianapolis, Ind.). Cells (5×10^3) in medium with 5% BCS were placed into single wells in a 96-well plate and exposed to indicated agents, and viability was assessed after 72 hours. Data presented represent three separate experiments with eight data points per concentration per experiment. Apoptosis [PharMingen (San Diego, Calif.) Apo-BrdU kit] and cell cycle changes (propidium iodide staining and flow cytometry) were assayed as before (13). Data are expressed as mean±SD.

[16] = test system: H441 cells; assay: Combination effect in cell viability assays, median dose effect method; type: cell-based, Human; conditions: dose range used
Method: Combination effects were evaluated by median dose effect method.

[17] = test system: H358 cells; conditions: 24 hours, gefitinib 1 μmol/L, dasatinib 500 nmol/L, or the combination
[18] = test system: pAkt, pSTAT3, cleaved PARP in H1975 cells; assay: Western analysis of pAkt, pSTAT3 and cleaved PARP; type: cell-based, Human; conditions: 24 hours
[19] = test system: pAkt, pSTAT3, cleaved PARP in H1650 cells; assay: Western analysis of pAkt, pSTAT3 and cleaved PARP; type: cell-based, Human; conditions: 24 hours
[20] = test system: pTyr416 Src (pSrc) family in H1975 cells; assay: Western analysis of Src phosphorylation status; type: cell-based, Human; conditions: 24 hours, dasatinib at 50 nmol/L
[21] = test system: H460 cells; assay: MTT assay after 120 hours, IC50; type: cell-based; conditions: Homo sapiens, NCI-H460, 120 h
From the text: as §1, §2

[22] = test system: H441 cells; assay: MTT assay after 120 hours, IC50; type: cell-based; conditions: Homo sapiens, NCI-H441, 120 h
From the text: as §1, §2

[23] = test system: H2122 cells; assay: MTT assay after 120 hours, IC50; type: cell-based; conditions: Homo sapiens, NCI-H2122, 120 h
From the text: as §1, §2

[24] = test system: H23 cells; assay: MTT assay after 120 hours, IC50; type: cell-based; conditions: Homo sapiens, NCI-H23, 120 h
From the text: as §1, §2

[25] = test system: H226 cells; assay: MTT assay after 120 hours, IC50; type: cell-based; conditions: Homo sapiens, NCI-H226, 120 h
From the text: as §1, §2

[26] = test system: lung cancer cells with EGFR mutation that are resistant to EGFR TKI; assay: Apoptosis and cell cycle in cells with acquired resistance to erlotinib; type: cell-based, Human; conditions: EGFR mutant cells resistant to EGFR TKI
[27] = test system: A549 cells; assay: MTT assay after 120 hours, IC50; type: cell-based; conditions: Homo sapiens, A549, 120 h, read-out: EGFR TKI IC50 (Nm)
From the text: Cell lines and cell culture. […] Gefitinib was provided by AstraZeneca (Wilmington, Del.) and dasatinib by Bristol-Myers Squibb Oncology (Princeton, N.J.).
Cytotoxicity and apoptosis assays. Cytotoxicity assays [3-(4,5-dimethylthiazol-2-yl)-2,5-diphenyltetrazolium bromide] were done according to the manufacturer's recommendations (Roche, Indianapolis, Ind.). Cells (5×10^3) in medium with 5% BCS were placed into single wells in a 96-well plate and exposed to indicated agents, and viability was assessed after 72 hours. Data presented represent three separate experiments with eight data points per concentration per experiment. […] Data are expressed as mean±SD.

Cc1cn(-c2cc(NC(=O)c3ccc(C)c(Nc4nccc(-c5cccnc5)n4)c3)cc(C(F)(F)F)c2)cn1 [AMN107]
imatinib-resistant BCR-ABL mutants against which significantly active [1]: 32/33

Cc1nc(Nc2ncc(C(=O)Nc3c(C)cccc3Cl)s2)cc(N2CCN(CCO)CC2)n1 [dasatinib, N-(2-chloro-6-methylphenyl)-2-[[6-[4-[(2-hydroxyethyl)-1-pipperazinyl]-2-methyl-4-pyrimidinyl]amino]-5-thiazolecarboxamide, monohydrate]
PARP cleavage ([2]; gefitinib at 50 nmol/L, dasatinib at increasing concentrations): associated changes in PARP cleavage
pAkt ([2]; increasing concentrations): dose-dependent inhibition of pAkt
autophosphorylation of Tyr416 on Src family members (pSrc) [3]: completely inhibits pSrc
SRC Sensitivity ([4]; H322, BAC, EGFR WT, MTT 120 hours): S (SRC TKI Sensitivity Definition: IC50 less than 100 nM)
IC50 ([4]; read-out: Dasatinib IC50 (Nm)): 11.6 nM
SRC Sensitivity ([5]; H157, Squamous, EGFR WT, MTT 120 hours): S (SRC TKI Sensitivity Definition: IC50 less than 100 nM)
IC50 ([5]; read-out: Dasatinib IC50 (Nm)): 48.9 nM
SRC Sensitivity ([6]; H1299, Large Cell, EGFR WT, MTT 120 hours): S (SRC TKI Sensitivity Definition: IC50 less than 100 nM)
IC50 ([6]; read-out: Dasatinib IC50 (Nm)): 31.6 nM
SRC Sensitivity ([7]; H1648, Adeno, EGFR WT, MTT 120 hours): S (SRC TKI Sensitivity Definition: IC50 less than 100 nM)
IC50 ([7]; read-out: Dasatinib IC50 (Nm)): 20.9 nM
SRC Sensitivity ([8]; H292, Squamous, EGFR WT, MTT 120 hours): S (SRC TKI Sensitivity Definition: IC50 less than 100 nM)
IC50 ([8]; read-out: Dasatinib IC50 (Nm)): 28.4 nM
SRC Sensitivity ([9]; H358, BAC, EGFR WT, MTT 120 hours): S (SRC TKI Sensitivity Definition: IC50 less than 100 nM)
IC50 ([9]; read-out: Dasatinib IC50 (Nm)): 27.4 nM
Cmax [10]: 60 to 120 nM
PARP cleavage [11]: increase in PARP cleavage
pAkt and pSTAT3 [11]: concentration-dependent decrease of both pAkt and pSTAT3
pSrc [12]: inhibits pSrc
cell cycle profile ([13]; FIG. 12): cell cycle arrest characterized by increased G1 fraction and reduced S-phase fraction
cyclin D3 and p27 proteins ([13]; FIG. 13): decline in cyclin D3 and an increase in p27
pFAK [14]: reduction in pFAK
pSTAT3, pAkt, or pERK [14]: no significant reductions
cell viability, dasatinib versus gefitinib [15]: inhibited cell viability more than gefitinib
effect on cell viability [16]: no effect
G1 cell cycle arrest [17]: G1 cell cycle arrest to the same extent
cyclins D1 and D3 and p27 protein levels [17]: reduced cyclins D1 and D3 and increased p27 protein levels
PARP cleavage [18]: no PARP cleavage
pAkt or pSTAT3 [18]: neither gefitinib nor dasatinib affects
pSTAT3 ([19]; H1650, any growth conditions): No effect
PARP cleavage ([19]; H1650 grown in 5% BCS): induction of PARP cleavage
pAkt ([19]; H1650 grown in 5% BCS, dasatinib at 50 nmol/L): inhibits pAkt
pAkt ([19]; H1650 in low serum with exogenous EGF, 50 nmol/L): inhibit pAkt
degree of PARP cleavage, dasatinib versus gefitinib ([19]; H1650 in low serum with exogenous EGF): degree of PARP cleavage is higher
pSrc [20]: completely inhibits the low levels of pSrc
IC50 ([21]; read-out: Dasatinib IC50 (Nm)): > 2000 nM
IC50 ([22]; read-out: Dasatinib IC50 (Nm)): > 2000 nM
IC50 ([23]; read-out: Dasatinib IC50 (Nm)): 486 nM
IC50 ([24]; read-out: Dasatinib IC50 (Nm)): > 2000 nM
IC50 ([25]; read-out: Dasatinib IC50 (Nm)): 709 nM

C#Cc1cccc(Nc2ncnc3cc(OCCOC)c(OCCOC)cc23)c1 [erlotinib]
IC50 ([4]; read-out: EGFR TKI IC50 (Nm)): 135 nM
EGFR TKI Sensitivity ([4]; erlotinib, H322, BAC, EGFR WT, MTT 120 hours): S (EGFR TKI Sensitivity Definition: Reported IC50 < or = 1 μM)
IC50 ([5]; read-out: EGFR TKI IC50 (Nm)): > 2000 nM
IC50 ([6]; read-out: EGFR TKI IC50 (Nm)): > 2000 nM
IC50 ([7]; read-out: EGFR TKI IC50 (Nm)): 75.8 nM
EGFR TKI Sensitivity ([7]; erlotinib, H1648, Adeno, EGFR WT, MTT 120 hours): S (EGFR TKI Sensitivity Definition: Reported IC50 < or = 1 μM)
IC50 ([8]; read-out: EGFR TKI IC50 (Nm)): 63.4 nM
EGFR TKI Sensitivity ([8]; erlotinib, H292, Squamous, EGFR WT, MTT 120 hours): S (EGFR TKI Sensitivity Definition: Reported IC50 < or = 1 μM)
IC50 ([9]; read-out: EGFR TKI IC50 (Nm)): 199 nM
EGFR TKI Sensitivity ([9]; erlotinib, H358, BAC, EGFR WT, MTT 120 hours): S (EGFR TKI Sensitivity Definition: Reported IC50 < or = 1 μM)
cell cycle [26]: no observable effect on cell cycle
effect on cell viability [16]: no effect
IC50 [27]: > 2000 nM
IC50 ([21]; read-out: EGFR TKI IC50 (Nm)): > 2000 nM
IC50 ([22]; read-out: EGFR TKI IC50 (Nm)): > 2000 nM
IC50 ([23]; read-out: EGFR TKI IC50 (Nm)): 748 nM
IC50 ([24]; read-out: EGFR TKI IC50 (Nm)): > 2000 nM
IC50 ([25]; read-out: EGFR TKI IC50 (Nm)): > 2000 nM
